Assay results published in US10604473B2, “Lipids that increase insulin sensitivity and methods of using the same” (Beth Israel Deaconess Medical Center, Inc., priority 2013, dated 2020).
“Also recorded” adds a separate entry of the source.

How the values were obtained:
STC-1 cells [1] = assay: ERK phosphorylation in STC-1 cells (immunoblot); assay type: cell-based; settings: 15 minutes stimulation
Description: For the experiments summarized in FIG. 40, STC-1 cells were incubated with 9-PAHSA, 5-PAHSA or 9-OAHSA at the indicated concentrations. Cells were harvested and lysed and proteins were separated by SDS PAGE and transferred onto nitrocellulose filters. The phosphorylation of ERK and the amount of total ERK was determined by immunoblotting with antibodies specific for total or phosphor-ERK. DMSO was the control. For ERK phosphorylation, cells were serum deprived overnight and stimulated with FAHFAs or vehicle as indicated for 15 minutes followed by lysis in RIPA buffer and analysis by SDS-PAGE

STC-1 cells [2] = assay: Calcium flux (FURA2) in STC-1 cells; assay type: cell-based; settings: 100 uM, no extracellular Ca2+
Description: For the experiments summarized in FIG. 39 the method is: Cells grown on collagen coated glass slides were preloaded with the calcium indicator, FURA2, for 60 minutes. Buffer containing either FAHFAs or vehicle was incubated with cells for a period of 3 minutes followed by washout with buffer alone. FURA2 fluorescence, an indicator of Calcium mobilization, was monitored continuously before and during the addition of compounds and throughout the washout period. Results were analyzed with metamorph software. Calcium Flux in STC-1 (intestinal enteroendocrine) cells in the absence of extracellular calcium (calcium free buffer). Ligands were injected after 3 minutes and washed out after an additional 3 minutes. The data presented is the average fold change in Fura2 fluorescence for 10 individual STC-1 cells in the same field.
DMSO control had no effect. Top panel is linoleic acid, a positive control. Middle panel 9-PAHSA (100 uM). Bottom panel 5-PAHSA (100 μM). These experiments were done in the absence of extracellular calcium.

[3] = system: insulin-resistant high-fat fed mice; assay: Oral glucose tolerance test in HFD-fed mice; assay type: in vivo, mouse; settings: for basal glycemia: 30 minutes after oral administration; for area under the glucose excursion curve / glucose tolerance: OGTT, gavage 30 min prior
Description: Area under the curve (AUC), *p<0.05 compared to vehicle. […] Area above the curve (AAC). *p<0.05 compared to vehicle. […] Area under the curve (AUC). *p<0.05 compared to vehicle. FIG. 53D is a bar graph showing serum insulin levels 5 min post glucose challenge in chow-fed mice gavaged with 5-PAHSA or vehicle (glucose values shown in FIG. 53C). n=12-14 per group, *p<0.05 compared to vehicle by t-test. FIG. 53E is a bar graph showing serum GLP-1 levels 5 min post glucose challenge from chow-fed mice gavaged with 5-PAHSA or vehicle (glucose levels in FIG. 53C). n=12-14 per group, *p<0.05 compared to vehicle by t-test. FIG. 53F are bar graphs showing insulin secretion from primary human islets from two independent donors. Islets were incubated with low (2.5 mM) or high (20 mM) glucose ex vivo in the presence of 5-PAHSA (20 μM) or vehicle control. n=100 islets per condition, *p<0.05 compared to control 2.5 mM glucose, ^#p<0.05 compared to respective treatments at 2.5 mM glucose, ^$p<0.05 compared to control or diluents at 20 mM glucose by t-test. FIG. 53G are bar graphs showing active GLP-1 secretion from STC-1 cells in response to 5-PAHSA (5-P), 9-PAHSA (9P), […] (LA), GW9508 (GW) or vehicle control (DMSO). n=4 per group, *p<0.05 compared to vehicle by t-test. All data are mean±s.e.m. See also FIG. 56.

GPR120 = biological target: T1, GPR120 (Homo sapiens, UniProt Q5NUL3); assay: PathHunter beta-Arrestin GPCR assay; assay type: cell-based
T1 construct: beta-galactosidase enzyme fragment (ProLink)
T1 sequence (Q5NUL3 1-377 isoform Q5NUL3-1): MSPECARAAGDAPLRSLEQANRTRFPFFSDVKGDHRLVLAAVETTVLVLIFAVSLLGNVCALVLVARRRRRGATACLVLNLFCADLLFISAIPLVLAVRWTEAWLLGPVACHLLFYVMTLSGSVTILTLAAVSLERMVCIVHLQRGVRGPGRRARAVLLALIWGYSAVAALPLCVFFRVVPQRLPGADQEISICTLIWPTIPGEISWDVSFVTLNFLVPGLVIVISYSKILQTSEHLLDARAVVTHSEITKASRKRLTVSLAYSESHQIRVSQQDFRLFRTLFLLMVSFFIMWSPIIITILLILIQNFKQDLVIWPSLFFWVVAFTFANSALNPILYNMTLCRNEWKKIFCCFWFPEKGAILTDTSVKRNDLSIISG
From the text: FIGS. 57A and 57B are graphs showing GPR120 activation by 9-PAHSA and GPR120 knockdown in 3T3-L1 adipocytes. Specifically, FIG. 57A depicts a GPR120 activity assay using the PathHunter® eXpress GPR120L β-Arrestin GPCR Assay (DiscoverX). n=3 wells per condition. FIG. 57B is a bar graph showing validation of GPR120 knockdown in differentiated 3T3-L1 adipocytes. 3T3-L1 adipocytes (Day 8 post differentiation) were transfected with non-targeting (control) siRNA or three individual GPR120 targeting siRNA's individually or in combination. 48 h post-transfection GPR120 mRNA levels were measured by qPCR and normalized to TBP mRNA levels. n=3 wells per condition.
For the experiments summarized in FIGS. 43-45, the fragment based GPCR assay from DiscoveRx (PATHHUNTER® β-Arrestin assay) was used to as per manufacturer's instructions to determine activation of specific GPCRs as indicated in FIGS. 43-45.

CCCCCCCCCCCCCCCC(=O)OC(CCCCCCCCC)CCCCCCCC(=O)O (stereo not drawn) [9-PAHSA, palmitoyl-9-hydroxystearic acid]
ERK phosphorylation (STC-1 cells [1]): induce ERK phosphorylation
Ca2+ flux from intracellular stores (STC-1 cells [2]): induce Ca2+ flux from intracellular stores
basal glycemia [3]: lowered basal glycemia
area under the glucose excursion curve [3]: reduced area under the glucose excursion curve
glucose tolerance [3]: improved glucose tolerance
GPR120 activation (GPR120): dose-dependently activated GPR120; also recorded: is a ligand for the GPCR, GPR120; also recorded: activate GPR120

CCCCCCCCCCCCCCCC(=O)OC(CCCCCCCCCCCCC)CCCC(=O)O (stereo not drawn) [5-PAHSA]
ERK phosphorylation (STC-1 cells [1]): induce ERK phosphorylation
Ca2+ flux from intracellular stores (STC-1 cells [2]): induce Ca2+ flux from intracellular stores
basal glycemia [3]: lowered basal glycemia
area under the glucose excursion curve [3]: reduced area under the glucose excursion curve
glucose tolerance [3]: improved glucose tolerance
GPR120 activation (GPR120): dose-dependently activated GPR120; also recorded: activate GPR120
